According to patent US11169138B2, “Nanopores with internal protein adaptors” (priority 2015, dated 2021):
Numbering of substitutions follows the chain as printed. Entries after “also recorded” stand apart in the source; their conditions may differ. Like-named read-outs stand apart in the source and are kept apart here.

Assays:
[1] = target: T1, AlkB-Fe^++ (E. coli AlkB demethylase) (Escherichia coli, UniProt P05050); assay: Ligand binding to AlkB-Fe++ confined inside ClyA-AS nanopore, single-channel ionic current recording; settings: for L2B ΔIRES % (ligand-induced current enhancement from L2) / mean duration (toff) of ligand-induced events / koff −60 mV / kon −60 mV: −60 mV; for L2B ΔIRES % (ligand-induced current enhancement from L2): 150 mM NaCl, 15 mM Tris HCl pH 8.0, 28° C.; for L2B ΔIRES % (ligand-induced current enhancement from L2) / mean duration (toff) of ligand-induced events: ligand cis; for koff −60 mV / kon −60 mV: pH 8.0, 28° C.; for kon −60 mV: slope of event frequency vs concentration
T1 construct: made in house; host or cells: E. cloni EXPRESS BL21(DE3) E. coli
T1 sequence (P05050 with tags, fused parts or gaps): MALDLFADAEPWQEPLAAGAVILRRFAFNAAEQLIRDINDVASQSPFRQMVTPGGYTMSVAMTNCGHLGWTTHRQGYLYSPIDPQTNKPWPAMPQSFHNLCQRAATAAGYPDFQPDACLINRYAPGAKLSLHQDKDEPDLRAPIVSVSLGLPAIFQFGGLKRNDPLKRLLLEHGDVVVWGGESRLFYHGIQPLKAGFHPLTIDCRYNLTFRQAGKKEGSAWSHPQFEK
Method: (§1) The applied potential refers to the potential of the trans electrode. ClyA-AS nanopores were inserted into lipid bilayers from the cis compartment, which was connected to the ground electrode. The two compartments were separated by a 25 μm thick polytetrafluoroethylene film (Goodfellow Cambridge Limited) containing an orifice of ˜100 μm in diameter. The aperture was pretreated with ˜5 μl of 10% hexadecane in pentane and a bilayer was formed by the addition of ˜10 μL of 1,2-diphytanoyl-sn-glycero-3-phosphocholine (DPhPC) in pentane (10 mg/mL) to both electrophysiology chambers. Typically, the addition of 0.01-0.1 ng of oligomeric ClyA-AS to the cis compartment (0.5 mL) was sufficient to obtain a single channel. […] Electrical recordings were carried out in 150 mM NaCl, 15 mM Tris.HCl pH 8.0 (AlkB experiments) or 150 mM NaCl, 15 mM Tris.HCl pH 7.5 (DHFR experiments). The temperature of the recording chamber was maintained at 28° C. by water circulating through a metal case in direct contact with the bottom and sides of the chamber.
(§2) Electrical signals from planar bilayer recordings were amplified using an Axopatch 200B patch clamp amplifier (Axon Instruments) and digitized with a Digidata 1440 A/D converter (Axon Instruments). Data were recorded by using the Clampex 10.4 software (Molecular Devices) and the subsequent analysis was carried out with the Clampfit software (Molecular Devices). Electrical recordings were performed in 150 mM NaCl, 15 mM Tris.HCl pH 8.0 (AlkB) or pH 7.5 (DHFR) by applying a 2 kHz low-pass Bessel filter and a 10 kHz sampling rate. For further analysis traces were filtered digitally with a Bessel (8-pole) low-pass filter with a 50 Hz cut-off. Residual current values (IRES%) were calculated from blocked pore current values (IB) and open pore current values (IO) as IRES %=100*IB/IO. IB and IO were determined from Gaussian fits to all point current histograms (0.05 pA bin size) for at least 15 individual protein blockades. ΔIRES % values were calculated from IRES % using propagation of errors.
(§3) Current transitions from level 1 were analyzed with the “single-channel search” function in Clampfit. The detection threshold to collect the ligand-induced events for AlkB was set to 4 pA and events shorter than 10 ms were ignored. […] The resulting event dwell times (toff) and the time between events (ton) were binned together as cumulative distributions and fitted to a single exponential to retrieve the ligand-induced lifetimes (τoff) and the ligand-induced event frequencies (f=1/τon). The process of event collection was monitored manually. For AlkB, final values of τon and τoff were based on average values derived from at least 3 single channel experiments at each concentration. Each experiment analysed more than 8 AlkB blockades. At the low ligand concentrations (0.2 mM) about 100 ligand-binding events were measured. Otherwise more than 150 events were collected. […] Subsequently, the ton values were binned together as cumulative distributions and fitted to a single exponential fit to retrieve characteristic τon values. The values for koff represented in FIG. 2b and FIG. 4b were determined by taking the average±standard deviations of 1/toff of at least 3 single channel experiments. The values of the association rate constants (kon) were determined from the slope of the linear regression curves calculated from the dependency of the event frequencies (f=1/τon) on the ligand concentration (OriginLab, FIGS. 2b and 4b). Graphs were made with Origin (OriginLab Corporation) or Clampfit software (Molecular Devices).
9, 872-877; Bleijlevens, B. et al. (2012) Biochem. 2012, 51, 3334-3341].

[2] = target: T2, N120D-AlkB-Fe^++ (Escherichia coli, UniProt P05050, N120D); assay: Ligand binding to N120D AlkB mutant confined inside ClyA-AS nanopore; design: species or system E. coli; settings: 7.2 mM 2-OG, N=4
T2 construct: additional alanine after the starting methionine (cloning residue, between Met1 and Leu2) (N); Strep-tag via glycine-serine-alanine linker (C); made in house; host or cells: pT7-SC1 plasmid; expression host not restated for the mutant
T2 sequence (P05050 1-216 N120D): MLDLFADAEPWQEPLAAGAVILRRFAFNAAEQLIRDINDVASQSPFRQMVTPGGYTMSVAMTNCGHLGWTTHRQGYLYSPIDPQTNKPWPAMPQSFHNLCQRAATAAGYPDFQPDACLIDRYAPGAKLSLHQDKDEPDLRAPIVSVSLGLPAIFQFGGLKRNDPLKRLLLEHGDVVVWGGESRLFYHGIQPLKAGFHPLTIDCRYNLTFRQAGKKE

[3] = target: T3, DHFRtag:MTX (Escherichia coli, UniProt P0ABQ4, C152S/C85A); assay: Ligand binding to DHFRtag:MTX complex confined inside ClyA-AS nanopore, single-channel recording; design: species or system E. coli; settings: for L2B ΔIRES %: from L2
T3 construct: Met-Ala-Ser-Ala (N); made in house; host or cells: E. cloni EXPRESS BL21(DE3) E. coli
T3 sequence (P0ABQ4 1-159 C85A/C152S): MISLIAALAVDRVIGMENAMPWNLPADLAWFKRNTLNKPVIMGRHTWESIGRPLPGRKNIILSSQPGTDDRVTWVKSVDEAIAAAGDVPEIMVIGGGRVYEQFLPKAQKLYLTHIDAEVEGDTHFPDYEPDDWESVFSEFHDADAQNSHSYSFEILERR
Method: as §1, §2, §3

[4] = target: T4, DHFR (Escherichia coli, UniProt P0ABQ4, C152S/C85A); assay: Ligand effects on DHFR (untagged construct) blockades of ClyA-AS nanopore; format: binding, E. coli; settings: 20 μM NADPH cis after 400 nM MTX, −90 mV
T4 construct: Met-Ala-Ser-Ala (N); made in house; host or cells: E. cloni EXPRESS BL21(DE3) E. coli
T4 sequence (P0ABQ4 1-159 C85A/C152S): T3 sequence (P0ABQ4 1-159 C85A/C152S)

[5] = target: SBD1 (Lactococcus lactis, UniProt Q9CES5); assay: Asparagine binding to SBD1 inside type I ClyA-AS nanopore
Method: The interaction of SBD1 with asparagine was sampled using type I ClyA-AS nanopores. ClyA-AS (C87A/L99Q/E103G/F166Y/I203V/C285S/K294R/H307Y). In 150 mM NaCl and 15 mM Tris-HCl (pH 7.5), the addition of 74 nM of SBD1 to the cis compartment of Type I ClyA-AS induced transient current blockades at negative applied potentials (trans). […] Every 3.5±0.1 s^−1 (mean±S.E., n=212) the current switched to Level II (Ires %=66.8±0.4%, N=5) with a lifetime of 109±1 ms (mean±S.E., n=340). The protein blockades released spontaneously after 4.2±1.8 s (mean±S.E., n=291).
The dissociation constant was determined by titrating the substrate and plotting the relative closed population (CL/(O+CL)), determined from the area of the all point current histogram, versus the concentration. […] The closing and opening rate constants were determined from the inverse of the open and closed state lifetimes respectively and were plotted versus the asparagine concentration. The closing rate was linearly dependent on the substrate concentration and the slope of the linear fit gave the kclosing=1.2×10^7 s^−1 M^−1.

[6] = target: SBD2 (Lactococcus lactis, UniProt Q9CES5); assay: Glutamine binding to SBD2 inside type I ClyA-AS nanopore
Method: The interaction of SBD2 with glutamine was sampled using type I ClyA-AS nanopores at −100 mV. The addition of 72 nM of SBD2 induced a current blockade that fluctuated between two levels I (Ires %=63.6±0.3%, τ=256±5 ms, N=3) and level III (Ires %=61.0±0.2%, τ=145±13 ms, N=3). Protein blockades remained inside the nanopore for 3.9±0.7 s (mean±S.E., n=225). Rarely the current visited an additional ionic current level, Level II (Ires %=62.5±0.3%, τ=18±1 ms, n=856, N=3).
We studied ligand binding by stepwise addition of glutamine at concentrations ranging from 200 nM to 3 μM. […] Binding rates were determined from the lifetimes as described above. Upon linear fitting of the binding rate curve the glutamine binding rates from Level I and III were determined. […] The opening rate constant was determined by the intercept at zero koff=39.7 s^1.

[7] = system: Type I ClyA-AS nanopore; assay: Current blockades from capture of protein adaptors by Type I ClyA-AS nanopore; design: species or system S. Typhi; settings: ~4 nM cis, −60 mV
Method: The applied potential refers to the potential of the trans electrode. ClyA-AS nanopores were inserted into lipid bilayers from the cis compartment, which was connected to the ground electrode. The two compartments were separated by a 25 μm thick polytetrafluoroethylene film (Goodfellow Cambridge Limited) containing an orifice of ˜100 μm in diameter. The aperture was pretreated with ˜5 μl of 10% hexadecane in pentane and a bilayer was formed by the addition of ˜10 μL of 1,2-diphytanoyl-sn-glycero-3-phosphocholine (DPhPC) in pentane (10 mg/mL) to both electrophysiology chambers. […]
as §2, with “Electrical recordings were performed in 150 mM NaCl, 15 mM Tris.HCl pH 8.0 (AlkB) or pH 7.5 (DHFR) by applying a 2 kHz low-pass Bessel filter and a 10 kHz sampling rate. For further analysis traces were filtered digitally with a Bessel (8-pole) low-pass filter with a 50 Hz cut-off.” left out

[8] = −90 mV, pH 7.5, 28° C., ligand trans

O=C(O)CCC(=O)C(=O)O [2-OG, 2-oxoglutarate]
L2B ΔIRES % (ligand-induced current enhancement from L2) [1]: +1.7 ± 1.2%
mean duration (toff) of ligand-induced events [1]: 1.7 ± 0.5 s
koff −60 mV [1]: 0.66 ± 0.33 s⁻¹
kon −60 mV [1]: 1.8 ± 0.3 × 10^3 s^−1 M^−1
current transitions in N120D-AlkB-Fe++ blockades [2]: did not induce current transitions

O=C(O)CNC(=O)C(=O)O [N-OG, N-oxalylglycine]
koff ([1]; pH 8, read-out: koff −60 mV): 0.57 ± 0.1 s⁻¹
kon ([1]; pH 8, read-out: kon −60 mV): 1200 ± 300000 M⁻¹ s⁻¹
L2B ΔIRES % (ligand-induced current enhancement from L2) [1]: +1.7 ± 1.0%
mean duration (toff) of ligand-induced events [1]: 1.8 ± 0.4 s

NC(=O)c1ccc[n+]([C@@H]2O[C@H](COP(=O)([O-])OP(=O)(O)OC[C@H]3O[C@@H](n4cnc5c(N)ncnc54)[C@H](OP(=O)(O)O)[C@@H]3O)[C@@H](O)[C@H]2O)c1 [NADP+]
DHFRtag:MTX blockades not responding to the ligand ([3]; NADP+ added in trans): Approximately 45%
τM:N+ (dwell of NADP+ events) ([3]; −90 mV, NADP+ trans): 102 ± 11 ms
koff −90 mV ([3]; −90 mV, pH 7.5, 28° C.): 10 ± 1 s⁻¹
kon −90 mV ([3]; −90 mV, pH 7.5, 28° C.): 2.1 ± 0.3 × 10^6 s^−1 M^−1
L2B ΔIRES % [3, 8]: +4.7 ± 0.9%

NC(=O)C1=CN([C@@H]2O[C@H](COP(=O)(O)OP(=O)(O)OC[C@H]3O[C@@H](n4cnc5c(N)ncnc54)[C@H](OP(=O)(O)O)[C@@H]3O)[C@@H](O)[C@H]2O)C=CC1 [NADPH]
enhancement of residual ionic current on NADPH binding ([3]; DHFR10+/4+/tag:MTX complexes, −90 mV): ~4 pA
DHFRtag:MTX blockades with "long" NADPH events ([3]; NADPH trans): ~55%
DHFRtag:MTX blockades with "short" NADPH events ([3]; NADPH trans): Approximately 45%
kon, "long" NADPH events ([3]; −90 mV): 4.8e+06 ± 1.2e+06 M⁻¹ s⁻¹
kon, "short" NADPH events ([3]; −90 mV): 5.8e+06 ± 1.2e+06 M⁻¹ s⁻¹
ΔIRES %, "long" NADPH events ([3]; −90 mV): 2.7±0.7%
ΔIRES %, "short" NADPH events ([3]; −90 mV): 2.2±0.9%
lifetime of "long" NADPH binding events ([3]; −90 mV, NADPH trans): > 3 s
lifetime of "short" NADPH binding events ([3]; −90 mV, NADPH trans): 38.5 ± 0.8 ms
kon −90 mV ([3]; −90 mV, pH 7.5, 28° C.): 4.8 ± 1.2 × 10^6 s^−1 M^−1
L2B ΔIRES % (first NADPH column as printed) [3, 8]: +2.7 ± 0.7%
L1B ΔIRES % ([3]; −90 mV, pH 7.5, 28° C., ligand trans, from L1): +2.7±0.7%
L2B ΔIRES % [3, 8]: +5.4 ± 1.0%
effect of NADPH on DHFR blockades in presence of MTX [4]: abolished; also recorded: nearly total elimination of the DHFR blockades

O=C(O)CCC(=O)O [SUC, succinate]
L2B ΔIRES % (ligand-induced current enhancement from L2) [1]: +2.1 ± 1.0%
mean duration (toff) of ligand-induced events [1]: 0.061 ± 0.011 s
koff −60 mV [1]: 16.6 ± 2.6 s⁻¹
kon −60 mV [1]: 9.2 ± 1.3 × 10^2 s^−1 M^−1

NC(=O)C[C@H](N)C(=O)O [asparagine]
Kd [5]: 470 ± 30 nM
kon ([5]; pH 7.5, read-out: kclosing): 1.2e+07 M⁻¹ s⁻¹
koff ([5]; pH 7.5, read-out: kopening): 9.4 s⁻¹

NC(=O)CC[C@H](N)C(=O)O [glutamine]
Kd [6]: 1270 ± 140 nM
kon ([6]; read-out: kon, binding from Level I): 3.7e+07 M⁻¹ s⁻¹
kon ([6]; read-out: kon, binding from Level II (so in the source)): 3.8e+07 M⁻¹ s⁻¹
koff (opening rate constant) ([6]; −100 mV, intercept at zero): 39.7 s^1

B1: AlkB-Fe^++ (protein, UniProt P05050 1-216, looked up)
Alpha-ketoglutarate-dependent …: T2 sequence (P05050 1-216 N120D) with D120N
modifications: Fe2+ bound
AlkB-Fe++ blockades not showing ligand-induced transitions [1]: About 30%
time trapped inside the nanopore [7]: several minutes
